Assay results as given in patent publication US5591752A, “Quinoline derivative” (Ube Industries, Ltd., priority 1993, dated 1997).
Read-outs that look alike come from different tables or passages of the source.

Molecular target: T1, Leukotriene D4 (LTD4) receptor (Cavia porcellus, UniProt Q2NNR5)
T1 construct: lung cell membrane fractions of guinea pigs were used; from tissue; host or cells: lung membrane fractions of Hartley strain male guinea pigs
T1 sequence (Q2NNR5 1-340): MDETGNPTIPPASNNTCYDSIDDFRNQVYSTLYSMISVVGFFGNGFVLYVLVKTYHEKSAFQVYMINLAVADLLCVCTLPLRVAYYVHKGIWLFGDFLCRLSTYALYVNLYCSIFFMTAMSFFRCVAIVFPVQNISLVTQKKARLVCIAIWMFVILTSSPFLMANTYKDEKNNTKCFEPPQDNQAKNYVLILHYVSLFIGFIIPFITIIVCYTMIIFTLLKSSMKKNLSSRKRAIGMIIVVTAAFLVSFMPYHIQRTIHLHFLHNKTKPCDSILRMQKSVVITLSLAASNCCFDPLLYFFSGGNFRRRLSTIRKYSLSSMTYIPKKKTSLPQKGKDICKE
Assay: Leukotriene D4 receptor binding test ([3H]ICI-198615 displacement, lung cell membrane fractions)
Details: guinea pig lung membranes, [3H]ICI-198615 about 0.2 nM, pKi=-log Ki
Description: Leukotriene D4 receptor binding test
<Preparation of receptor samples>
As receptor samples, lung cell membrane fractions of guinea pigs were used. The membrane fractions were prepared according to the method of Ahn et al. (Ahn, H. S. & Barnett, A. (1986) Eur. J. Pharmacol., 127, 153.). After Hartley strain male guinea pigs (body weight: 400 to 500 g, supplied by Nihon SLC Co.) were killed by exsanguination, lungs were extracted and perfused with a physiological saline solution (Otsuka Seiyaku) from lung arteries. The extracted lungs were cut into pieces immediately or after the lungs were stored by freezing them at -80 ° C. A 10-fold amount of a buffer solution (pH 7.4) of 10 mM PIPES, 10 mM MgCl2, 10 mM CaCl2 and 50 mM NaCl was added thereto and the mixtures were made suspensions by a homogenizer (manufactured by Yamato Co., LP-41C Model). After the suspensions were filtered with gauze, the filtrates were centrifuged by an ultracentrifuge (manufactured by Hitachi Co., 70P-72 Model) with 50,000 g for 10 minutes, whereby membrane fractions were deposited. The membrane fractions were washed twice and then suspended in the same buffer solution to obtain receptor samples. Measurement of a protein concentration was conducted by the Lowry method (Lowry, O, H. et al. (1951) J. Biol. Chem., 193,265.) by using bovine serum albumin as a standard protein. The samples prepared (protein amount: 10 to 25 mg/ml) were stored by freezing them at -80° C. and used for experiments.
<Leukotriene D4 receptor binding test>
The leukotriene D4 (LTD4) receptor binding test was conducted according to the method of O'Sullivan et al. (O'Sullivan, B. P. & Mong, S. (1989) Mol. Pharmacol., 35, 795.). The receptor samples were diluted with a buffer solution (pH 7.4) of 10 mM PIPES, 10 mM MgCl2, 10 mM CaCl2 and 50 mM NaCl and 0.42 mg/ml in terms of a protein amount was used. As a labeling compound, [^3 H]ICI-198615 (produced by Du Pont Co., 60 Ci/mmol) which specifically binds to the LTD4 receptor was used. [^3 H]ICI-198615 and a compound to be tested were dissolved in dimethylsulfoxide and a 1/50 amount (2% by volume) of the solution was added to the receptor-diluted solutions, respectively. 500 μl of each reaction mixture was incubated at 25° C. for 40 minutes and then filtered with a glass fiber filter (Whatman, GF/B type) by using a cell harvester (manufactured by Brandel Co., M-30R Model). The filters were washed with 10 ml of an ice-cooled 100 mM NaCl-50 mM phosphate buffer solution (pH 7.5) and subjected to ultrasonic treatment in 9 ml of a liquid scintillator (manufactured by Nacalai Tesque, Co., Clear sol I) for 2 minutes. Thereafter, radioactivity was measured by a liquid scintillation counter (manufactured by Packard Co., 2000 CA Model). In a test of determining a dissociation constant of ICI-198615, 0.1 to 2 nM [^3 H]ICI-198615 and 10 μM non-radioactive ICI-198615 were used. In a test of determining inhibition constants of the respective compounds to be tested, [^3 H]ICI-198615 having a concentration of about 0.2 nM and the compounds each having a concentration of 0.1 pM to 0.1 mM were used.
<Data analysis of receptor binding test>
The dissociation constant (Kd) of ICI-198615 and the binding inhibition constants (Ki) of the respective compounds to be tested were determined by the following numerical formulae (A), (B) and (C).
wherein B: a concentration of a label [3H] which is bound to a receptor, Bmax: a maximum receptor-binding concentration of a label [^3 H], F: a concentration of a label [^3 H] which is not bound to a receptor, [L]: a concentration of a label [^3 H], IC50 : a concentration of a compound which inhibits 50% of binding of a label [^3 H] to a receptor and pKi: a logarithm, of a reciprocal of Ki.

[1] = read-out: pKi value (converted)

SMILES	Ki (pKi value)	Ki [1]
O=C(O)CCSC1c2ccccc2COc2ccc(OCc3ccc4ccc(Cl)cc4n3)cc21 (single isomer, unassigned; (+)) [Example 52, (+)-11-(2-Carboxyethylthio)-2-(7-chloroquinolin-2-yl)methoxy-6,11-dihydrodibenz[b,e]oxepine]	0.316 nM	
O=C(O)CCSC1c2ccccc2COc2ccc(OCc3ccc4cc(F)c(Cl)cc4n3)cc21 (single isomer, unassigned; (-)) [Example 51, (-)-11-(2-Carboxyethylthio)-2-(7-chloro-6-fluoroquinolin-2-yl)methoxy-6,11-dihydrodibenz[b,e]oxepine]	1.26 nM	
O=C(O)CCSC1c2ccccc2COc2ccc(OCc3ccc4ccc(Cl)cc4n3)cc21 (single isomer, unassigned; (-)) [Example 53, (-)-11-(2-Carboxyethylthio)-2-(7-chloroquinolin-2-yl)-methoxy-6,11-dihydrodibenz[b,e]oxepine]	3.98 nM	
O=C(O)CCSC1c2ccccc2COc2ccc(OCc3ccc4cc(Cl)ccc4n3)cc21 (stereo not drawn) [Example 5, 11-(2-Carboxyethylthio)-2-(6-chloroquinolin-2-yl)methoxy-6,11-dihydrodibenz[b,e]oxepine]	3.16 nM	
Cc1cccc2c1C(SCCC(=O)O)c1cc(OCc3ccc4ccc(Cl)cc4n3)ccc1OC2 (stereo not drawn) [Example 12, 11-(2-Carboxyethylthio)-2-(7-chloroquinolin-2-yl)methoxy-10-methyl-6,11-dihydrodibenz[b,e]oxepine]	5.01 nM	
O=C(O)CCSC1c2ccc(Br)cc2COc2ccc(OCc3ccc4ccc(Cl)cc4n3)cc21 (stereo not drawn) [Example 14, 8-Bromo-11-(2-carboxyethylthio)-2-(7-chloroquinolin-2-yl)-methoxy-6,11-dihydrodibenz[b,e]oxepine]	3.16 nM	
N#Cc1cccc2c1COc1ccc(OCc3ccc4ccc(Cl)cc4n3)cc1C2SCCC(=O)O (stereo not drawn) [Example 15, 11-(2-Carboxyethylthio)-2-(7-Chloroquinolin-2-yl)methoxy-7-cyano-6,11-dihydrodibenz[b,e]oxepine]	0.631 nM	
O=C(O)CCSC1c2ccc(SCC(=O)O)cc2COc2ccc(OCc3ccc4ccc(Cl)cc4n3)cc21 (stereo not drawn) [Example 16, 11-(2-Carboxyethylthio)-8-carboxymethylthio-2-(7-chloroquinolin-2-yl)methoxy-6,11-dihydrodibenz[b,e]oxepine]	0.631 nM	
O=C(O)CCSC1c2ccc(-c3nn[nH]n3)cc2COc2ccc(OCc3ccc4ccccc4n3)cc21 (stereo not drawn) [Example 17, 11-(2-Carboxyethylthio)-2-(quinolin-2-yl)methoxy-8-(tetrazol-5-yl)-6,11-dihydrodibenz[b,e]oxepine]	1.58 nM	
O=C(O)CCSC1c2ccc(-c3nn[nH]n3)cc2COc2ccc(OCc3ccc4ccc(Cl)cc4n3)cc21 (stereo not drawn) [Example 18, 11-(2-Carboxyethylthio)-2-(7-chloroquinolin-2-yl)methoxy-8-(tetrazol-5-yl)-6,11-dihydrodibenz[b,e]oxepine]	0.2 nM	
O=C(O)CCSC1c2cc(OCc3ccc4ccc(Cl)cc4n3)ccc2OCc2c(-c3nn[nH]n3)cccc21 (stereo not drawn) [Example 19, 11-(2-Carboxyethylthio)-2-(7-chloroquinolin-2-yl)methoxy-7-(tetrazol-5-yl)-6,11-dihydrodibenz[b,e]oxepine]	0.501 nM	
NC(=O)c1cccc2c1COc1ccc(OCc3ccc4ccc(Cl)cc4n3)cc1C2SCCC(=O)O (stereo not drawn) [Example 20, 7-Carbamoyl-11-(2-carboxyethylthio)-2-(7-chloroquinolin-2-yl)methoxy-6,11-dihydrodibenz[b,e]oxepine]	0.631 nM	
CC(SC1c2ccccc2COc2ccc(OCc3ccc4ccccc4n3)cc21)C(=O)O (stereo not drawn) [Example 23, 11-(1-Carboxyethylthio)-2-(quinolin-2-yl)methoxy-6,11-dihydrodibenz[b,e]oxepine]		5.01 nM
O=C(O)CCCSC1c2ccccc2COc2ccc(OCc3ccc4ccc(Cl)cc4n3)cc21 (stereo not drawn) [Example 24, 11-(3-Carboxypropylthio)-2-(7-chloroquinolin-2-yl)methoxy-6,11-dihydrodibenz[b,e]oxepine]	2.51 nM	
O=C(O)COC1c2ccccc2COc2ccc(OCc3ccc4ccc(Cl)cc4n3)cc21 (stereo not drawn) [Example 27, 11-Carboxymethoxy-2-(7-chloroquinolin-2-yl)methoxy-6,11-dihydrobenz[b,e]oxepine]		5.01 nM
Clc1ccc2ccc(COc3ccc4c(c3)C(SCCc3nn[nH]n3)c3ccccc3CO4)nc2c1 (stereo not drawn) [Example 30, 2-(7-Chloroquinolin-2-yl)methoxy-11-[2-(tetrazol-5-yl)ethylthio]-6,11-dihydrodibenz[b,e]oxepine]	2 nM	
Clc1ccc2ccc(COc3ccc4c(c3)C(OCCc3nn[nH]n3)c3ccccc3CO4)nc2c1 (stereo not drawn) [Example 31, 2-(7-Chloroquinolin-2-yl)methoxy-11-[2-(tetrazol-5-yl)ethoxy]-6,11-dihydrodibenz[b,e]oxepine]		2 nM
O=C(CSC1c2ccccc2COc2ccc(OCc3ccc4ccc(Cl)cc4n3)cc21)NS(=O)(=O)c1ccccc1 (stereo not drawn) [Example 39, 11-[(Phenylsulfonyl)aminocarbonyl]methylthio-2-(7-chloroquinolin-2-yl)methoxy-6,11-dihydrodibenz[b,e]oxepine]		2 nM
Cc1ccccc1S(=O)(=O)NC(=O)CCSC1c2ccccc2COc2ccc(OCc3ccc4ccc(Cl)cc4n3)cc21 (stereo not drawn) [Example 40, 2-(7-Chloroquinolin-2-yl)methoxy-11-[2-[(2-methylphenylsulfonyl)aminocarbonyl]ethylthio]-6,11-dihydrodibenz[B,e]oxepine]		2.51 nM
O=C(CSC1c2ccccc2COc2ccc(OCc3ccc4ccccc4n3)cc21)NS(=O)(=O)c1ccccc1 (stereo not drawn) [Example 41, 11-[(Phenylsulfonyl)aminocarbonyl]methylthio-2-(quinolin-2-yl)methoxy-6,11-dihydrodibenz[b,e]oxepine]		1.26 nM
CC(=O)CCc1ccc2c(c1)COc1ccc(OCc3ccc4cc(F)c(Cl)cc4n3)cc1C2SCCC(=O)O (stereo not drawn) [Example 48, 11-(2-Carboxyethylthio)-2-(7-chloro-6-fluoroquinolin-2-yl)methoxy-8-(2-acetylethyl)-6,11-dihydrodibenz[b,e]oxepine]	0.2 nM	
